SMILES strings stand for the structures.

`CC(C1CC1)N(C(=O)c1ccc(S(C)(=O)=O)cc1)c1cccc(C(=O)Nc2c(Br)cc(C(F)(C(F)(F)F)C(F)(F)F)cc2C(F)(F)F)c1F` (stereo not shown) [Compound 77, N-(2-bromo-4-(perfluoropropan-2-yl)-6-(trifluoromethyl)phenyl)-3-(N-(1-cyclopropylethyl)-4-(methylsulfonyl)benzamido)-2-fluorobenzamide] came in with a melting point of 76 to 78.8 °C.

`N#Cc1ccc(C(=O)N(c2cccc(C(=O)Nc3c(Br)cc(C(F)(C(F)(F)F)C(F)(F)F)cc3C(F)(F)F)c2F)C(C2CC2)C2CC2)cc1` [Compound 32, N-(2-bromo-4-(perfluoropropan-2-yl)-6-(trifluoromethyl)phenyl)-3-(4-cyano-N-(dicyclopropylmethyl)benzamido)-2-fluorobenzamide] showed a melting point of 73.5 to 76.1 °C.

For the molecule `COC(c1cc(Br)c(NC(=O)c2cccc(N(CC3CC3)C(=O)c3ccc(Cl)cc3)c2F)c(C(F)(F)F)c1)(C(F)(F)F)C(F)(F)F` [Compound 43, N-(2-bromo-4-(1,1,1,3,3,3-hexafluoro-2-methoxypropan-2-yl)-6-(trifluoromethyl)phenyl)-3-(4-chloro-N-(cyclopropylmethyl)benzamido)-2-fluorobenzamide], the melting point fell in the range of 139.3 to 140.2 °C.

The molecule `COC(c1cc(Br)c(NC(=O)c2cccc(N(CC3CC3)C(=O)c3ccc(C#N)cc3)c2F)c(C(F)(F)F)c1)(C(F)(F)F)C(F)(F)F` [Compound 24, N-(2-bromo-4-(1,1,1,3,3,3-hexafluoro-2-methoxypropan-2-yl)-6-(trifluoromethyl)phenyl)-3-(4-cyano-N-(cyclopropylmethyl)benzamido)-2-fluorobenzamide] showed a melting point of 152.3 to 153.5 °C.
